In patent publication US9510598B2, “Nitrogen-containing heterocyclic compounds for plant disease control” (BAYER CROPSCIENCE AG, priority 2012, dated 2016):
Where two headings read alike, the source gives them in different places.

Assays:
Puccinia recondita = experiment: In vivo preventive test on Puccinia recondita (brown rust on wheat); conditions: 500 ppm; wheat plants sprayed 24 hours before contamination; grading 10 days after contamination vs control plants
Experimental: Wheat plants (“Scipion” variety), sown in starter cups on a 50/50 peat soil-pozzolana substrate and grown at 22° C. (12 h)/20° C. (12 h), are treated at the 1-leaf stage (10 cm height) by spraying with the active ingredient prepared as described above. Plants, used as controls, are treated with the mixture of acetone/tween/DMSO/water not containing the active material. After 24 hours, the plants are contaminated by spraying the leaves with an aqueous suspension of Puccinia recondita spores (100 000 spores per ml).

[1] = format: physicochemical
Uromyces appendiculatus = experiment: In vivo preventive test on Uromyces appendiculatus (bean rust); conditions: 500 ppm; bean plants sprayed 24 hours before contamination; grading 10 days after contamination vs control plants
Experimental: Bean plants (“Saxa” variety), sown in starter cups on a 50/50 peat soil-pozzolana substrate and grown at 24° C., are treated at the 2-leaf stage (9 cm height) by spraying with the active ingredient prepared as described above. Plants, used as controls, are treated with the mixture of acetone/tween/DMSO/water not containing the active material. After 24 hours, the plants are contaminated by spraying the leaves with an aqueous suspension of Uromyces appendiculatus spores (150 000 spores per ml).

Septoria tritici = experiment: In vivo preventive test on Septoria tritici (leaf spot on wheat); conditions: 500 ppm; wheat plants sprayed 24 hours before contamination; grading 21 to 28 days after contamination vs control plants
Method in brief: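 Scipion wheat at 1-leaf stage sprayed with compound, controls receiving acetone/tween/DMSO/water vehicle; 24 h later leaves inoculated with Septoria tritici spores (500 000 spores per ml). Efficacy (%) graded versus control plants 21 to 28 days after contamination.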

Sphaerotheca fuliginea = experiment: In vivo preventive test on Sphaerotheca fuliginea (powdery mildew on cucurbits); conditions: 500 ppm; gherkin plants sprayed 24 hours before contamination; grading 12 days after contamination vs control plants
Method in brief: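 Preventive spray of gherkin plants at Z11 cotyledon stage, grown at 24° C; inoculation 24 hours later with Sphaerotheca fuliginea spores (100 000 spores per ml). Efficacy graded 12 days post-inoculation as % versus solvent-treated control plants.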

Botrytis cinerea = experiment: In vivo preventive test on Botrytis cinerea (grey mould); conditions: 500 ppm; gherkin plants sprayed 24 hours before contamination; grading 4-5 days after contamination vs control plants
Method in brief: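 Gherkin plants ("Vert petit de Paris") sprayed with compound at Z11 cotyledon stage, then inoculated 24 h later with B. cinerea spores (50 000/ml) in PDB/fructose/NH4NO3/KH2PO4 nutrient solution. Incubated at 17 °C, 80% RH; % efficacy versus solvent-treated controls graded 4–5 days after contamination.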

Phytophthora infestans = format: in vivo; conditions: 500 ppm; tomato plants sprayed 24 hours before contamination; grading 5 days after contamination vs control plants
Alternaria brassicae = experiment: In vivo preventive test on Alternaria brassicae (leaf spot on radish); conditions: 500 ppm; radish plants sprayed 24 hours before contamination; grading 5 days after contamination vs control plants
Experimental: Radish plants (“Pernod Clair” variety), sown in starter cups on a 50/50 peat soil-pozzolana substrate and grown at 17° C., are treated at the 2-leaf stage by spraying with the active ingredient prepared as described above. Plants, used as controls, are treated with the mixture of acetone/tween/DMSO/water not containing the active material. After 24 hours, the plants are contaminated by spraying the leaves with an aqueous suspension of Alternaria brassicae spores (50 000 spores per ml). The spores are collected from a 15-day-old culture. […] Grading (% of efficacy) is carried out 5 days after the contamination, in comparison with the control plants.

[2] = method [a]: HPLC/LC-MS on reversed phase at pH 2.7, 0.1% formic acid in water / acetonitrile, gradient 10% to 95% acetonitrile
[3] = HPLC on reversed phase columns, method [a]: pH 2.7, 0.1% formic acid in water / acetonitrile, linear gradient 10% to 95% acetonitrile
[4] = method [a]: HPLC/LC-MS on reversed phase at pH 2.7, 0.1% formic acid in water / acetonitrile, linear gradient 10% to 95% acetonitrile

SMILES: C#Cc1cnc2ccc(C3=NOC(CC)(C(=O)NCC4COC(C)(C)O4)C3)cc2c1 (mixture of isomers) [compound 441]
- % of efficacy (protection) (Puccinia recondita): 83%
- log P [1, 2]: 2.66[a]
- % of efficacy (protection) (Uromyces appendiculatus): 91%
- % of efficacy (protection) (Septoria tritici): 100%
- % of efficacy (protection) (Sphaerotheca fuliginea): 94%

SMILES: CC(C)NC(=O)C1(C)CC(c2ccc3ncc(-c4ccco4)cc3c2)=NO1 (racemic) [compound 382]
- % of efficacy (protection) (Puccinia recondita): 79%
- log P [1, 2]: 2.77[a]
- % of efficacy (protection) (Uromyces appendiculatus): 89%

SMILES: Cn1cc(NC(=O)C2(C)CC(c3ccc4ncc(Br)cc4c3)=NO2)cn1 (racemic) [compound 434]
- % of efficacy (protection) (Puccinia recondita): 88%
- log P [1, 2]: 2.17[a]
- % of efficacy (protection) (Uromyces appendiculatus): 97%
- % of efficacy (protection) (Septoria tritici): 100%

SMILES: C#Cc1cnc2ccc(C3=NOC(CC)(C(=O)NC(C)C)C3)cc2c1 (racemic) [compound 446]
- % of efficacy (protection) (Puccinia recondita): 83%
- log P [1, 2]: 2.76[a]
- % of efficacy (protection) (Septoria tritici): 100%
- % of efficacy (protection) (Sphaerotheca fuliginea): 94%
- % of efficacy (protection) (Botrytis cinerea): 98%

SMILES: CCOCCCNC(=O)C1(C)CC(c2ccc3ncc(I)cc3c2)=NO1 (racemic) [compound 456]
- % of efficacy (protection) (Puccinia recondita): 83%
- log P [1, 2]: 2.86[a]
- % of efficacy (protection) (Septoria tritici): 100%
- % of efficacy (protection) (Sphaerotheca fuliginea): 98%
- % of efficacy (protection) (Botrytis cinerea): 98%

SMILES: CCn1cc(CNC(=O)C2(C)CC(c3cc(Cl)c4ncc(Br)cc4c3)=NO2)c(C)n1 (racemic) [compound 548]
- % of efficacy (protection) (Puccinia recondita): 83%
- log P [1, 3]: 2.77[a]
- % of efficacy (protection) (Septoria tritici): 100%
- % of efficacy (protection) (Sphaerotheca fuliginea): 80%
- % of efficacy (protection) (Botrytis cinerea): 94%

SMILES: CCCn1cc(CNC(=O)C2(OC)CC(c3ccc4ncc(Br)cc4c3)=NO2)c(C)n1 (stereo not drawn) [compound 50]
- % of efficacy (protection) (Phytophthora infestans): 100%
- % of efficacy (protection) (Puccinia recondita): 88%
- % of efficacy (protection) (Septoria tritici): 100%
- % of efficacy (protection) (Sphaerotheca fuliginea): 100%
- % of efficacy (protection) (Botrytis cinerea): 100%

SMILES: CCn1cc(CNC(=O)C2(C)CC(c3ccc4ncc(OC)cc4c3)=NO2)c(C)n1 (stereo not drawn) [compound 135]
- % of efficacy (protection) (Puccinia recondita): 89%
- % of efficacy (protection) (Alternaria brassicae): 100%
- log P [1, 4]: 1.83^[a]
- % of efficacy (protection) (Septoria tritici): 100%

SMILES: CC(C)NC(=O)C1(C)CC(c2ccc3ncc(S(C)(=O)=O)cc3c2)=NO1 (stereo not drawn) [compound 146]
- % of efficacy (protection) (Phytophthora infestans): 85%
- % of efficacy (protection) (Puccinia recondita): 72%
- log P [1, 4]: 1.81^[a]

SMILES: CC(NC(=O)C1(C)CC(c2ccc3ncc(Br)cc3c2)=NO1)c1ccccn1 (stereo not drawn) [compound 205]
- log P [1, 4]: 2.14^[a]
- % of efficacy (protection) (Uromyces appendiculatus): 70%
- % of efficacy (protection) (Septoria tritici): 100%
- % of efficacy (protection) (Sphaerotheca fuliginea): 75%
- % of efficacy (protection) (Botrytis cinerea): 84%

SMILES: C#CC1(NC(=O)C2(C)CC(c3ccc4ncc(Br)cc4c3)=NO2)CCCCC1 (stereo not drawn) [compound 237]
- % of efficacy (protection) (Alternaria brassicae): 71%
- log P [1, 3]: 3.9^[a]
- % of efficacy (protection) (Uromyces appendiculatus): 80%

SMILES: CCn1cc(CNC(=O)C2(C)CC(c3ccc4ncc(C)cc4c3)=NO2)c(C)n1 (stereo not drawn) [compound 257]
- % of efficacy (protection) (Phytophthora infestans): 100%
- % of efficacy (protection) (Puccinia recondita): 81%
- log P [1, 3]: 1.46^[a]

SMILES: CCn1cc(CNC(=O)C2(C)CC(c3ccc4ncc(-c5cncnc5)cc4c3)=NO2)c(C)n1 (stereo not drawn) [compound 265]
- % of efficacy (protection) (Puccinia recondita): 88%
- log P [1, 3]: 1.62^[a]
- % of efficacy (protection) (Uromyces appendiculatus): 96%

SMILES: COCC(COC)NC(=O)C1(C)CC(c2ccc3ncc(Br)cc3c2)=NO1 (stereo not drawn) [compound 305]
- log P [1, 3]: 2.56[a]
- % of efficacy (protection) (Uromyces appendiculatus): 80%

SMILES: C/C(=N\O)C1(C(=O)NC(C)C)CC(c2ccc3ncc(Br)cc3c2)=NO1 (stereo not drawn) [compound 420]
- % of efficacy (protection) (Puccinia recondita): 94%
- log P [1, 2]: 2.58[a]
- % of efficacy (protection) (Uromyces appendiculatus): 97%

SMILES: CC(C)NC(=O)C1(C)ON=C(c2ccc3ncc(Br)cc3c2)C1C(F)(F)F (stereo not drawn) [compound 423]
- % of efficacy (protection) (Puccinia recondita): 78%
- % of efficacy (protection) (Alternaria brassicae): 83%
- log P [1, 2]: 3.71[a]

SMILES: CC(C)NC(=O)C1(C(F)F)CC(c2ccc3ncc(Br)cc3c2)=NO1 (stereo not drawn) [compound 480]
- % of efficacy (protection) (Puccinia recondita): 90%
- % of efficacy (protection) (Uromyces appendiculatus): 83%

SMILES: C#Cc1cnc2ccc(C3=NOC(OC)(C(=O)NC4CC4)C3)cc2c1 (stereo not drawn) [compound 504]
- % of efficacy (protection) (Puccinia recondita): 72%
- log P [1, 2]: 2.08[a]
- % of efficacy (protection) (Septoria tritici): 100%
- % of efficacy (protection) (Sphaerotheca fuliginea): 100%
- % of efficacy (protection) (Botrytis cinerea): 99%

SMILES: C#Cc1cnc2ccc(C3=NOC(C)(C(=O)NCc4ccsc4)C3)cc2c1 (stereo not drawn) [compound 515]
- log P [1, 3]: 2.71[a]
- % of efficacy (protection) (Uromyces appendiculatus): 91%
- % of efficacy (protection) (Septoria tritici): 97%
- % of efficacy (protection) (Sphaerotheca fuliginea): 93%
- % of efficacy (protection) (Botrytis cinerea): 100%

SMILES: C#Cc1cnc2c(C)cc(C3=NOC(C)(C(=O)NCC4COC(C)(C)O4)C3)cc2c1 (stereo not drawn) [compound 536]
- % of efficacy (protection) (Puccinia recondita): 72%
- log P [1, 3]: 2.98[a]
- % of efficacy (protection) (Septoria tritici): 100%
- % of efficacy (protection) (Sphaerotheca fuliginea): 100%
- % of efficacy (protection) (Botrytis cinerea): 100%

SMILES: CCCn1cc(CNC(=O)C2(OC)CC(c3cc(Cl)c4ncc(Br)cc4c3)=NO2)c(C)n1 (stereo not drawn) [compound 567]
- % of efficacy (protection) (Puccinia recondita): 75%
- log P [1, 3]: 3.08[a]
- % of efficacy (protection) (Septoria tritici): 100%
- % of efficacy (protection) (Sphaerotheca fuliginea): 100%
- % of efficacy (protection) (Botrytis cinerea): 100%

SMILES: C=CC1(C(=O)NCc2cn(CC)nc2C)CC(c2ccc3ncc(Br)cc3c2)=NO1 (stereo not drawn) [compound 599]
- % of efficacy (protection) (Phytophthora infestans): 85%
- % of efficacy (protection) (Puccinia recondita): 88%
- log P [1, 3]: 2.61[a]
- % of efficacy (protection) (Septoria tritici): 100%
- % of efficacy (protection) (Sphaerotheca fuliginea): 100%
- % of efficacy (protection) (Botrytis cinerea): 100%

SMILES: CCn1cc(CNC(=O)C2(C(F)F)CC(c3ccc4ncc(I)cc4c3)=NO2)c(C)n1 (stereo not drawn) [compound 617]
- % of efficacy (protection) (Puccinia recondita): 71%
- log P [1, 3]: 2.73[a]
- % of efficacy (protection) (Sphaerotheca fuliginea): 100%
- % of efficacy (protection) (Botrytis cinerea): 95%

SMILES: C#Cc1cnc2ccc(C3=NOC(C=C)(C(=O)NCc4cn(CC)nc4C)C3)cc2c1 (stereo not drawn) [compound 724]
- % of efficacy (protection) (Phytophthora infestans): 100%
- % of efficacy (protection) (Puccinia recondita): 71%
- log P ([1]; HPLC on reversed phase columns, method [a]: pH 2.7, 0.1% formic acid in water and acetonitrile, linear gradient 10% to 95% acetonitrile): 2.37[a]
- % of efficacy (protection) (Septoria tritici): 100%
- % of efficacy (protection) (Sphaerotheca fuliginea): 100%
- % of efficacy (protection) (Botrytis cinerea): 98%
